Laboratory results as given in patent EP0091090A2, “Bipyridine substituted imidazolidene copper complex and its use in food-producing animals, and bipyridine, 2,2'-(2-imidazolidinylidene) di-copper complex and use in animals” (INTERNATIONAL MINERALS & CHEMICAL CORPORATION, priority 1982, dated 1983).

Test system: rumen fluid batch culture
Experiment: Rumen fluid batch culture test: volatile fatty acid, gas (CH4 + H2), protein and amino acid accumulation (Example 2)
Type: cell-based, steers
Parameters: HFo (formate) / HAc (acetate) / HPr (propionate) / HiBu (isobutyrate) / HBu (butyrate) / HiVal (isovalerate) / Total / Caloric Value of H2 / Caloric Value of HFo / Caloric Value of HAc / Caloric Value of HPr / Caloric Value of HiBu / Caloric Value of HBu / Caloric Value of HiVal / Caloric Value of CH3: unit not given here
Experimental: The above Formula IV composition was tested to determine its effectiveness as a feed additive for ruminants. The initial tests were in rumen fluid batch culture systems to determine the effect of the compound on volatile fatty acid/methane ratios (VFA/CH4). […] Test Procedure: A 50/50 mixture of ground corn and ground alfalfa was used as the substrate for the subject rumen fluid batch culture test. The compound (Formula IV ) was present in the rumen fluid in three separate test samples at 8.33, 25 and 75 ppm, respectively. On day 1, rumen fluid was obtained from mature fistulated steers on 50/50 concentrate/roughage diets. The rumen fluid (RF) was strained through three layers of gauze cloth and equilibrated with C02 gas. Wheaton serum vials (125 ml) were prepared ahead with 20 ml continuous batch buffer and 100 mg 50/50 ground corn/ground alfalfa. Controls and compounds (dissolved in acetone) were set up according to desired levels. The vials were kept under C02 gas until 20 ml of the strained RF was added. The vials were sealed and incubated at 39°C for 24 hours in a hot water bath. On successive days, gas samples (0.1 ml) were drawn for gas chromatography analysis before transferring 20 ml of the batch culture to another vial containing 20 ml of buffer, 100 mg substrate, and the corresponding compound. The remaining 20 ml was inoculated with 2 ml 6N HC1 and centrifuged at 15,000 rpm for 15 minutes. Ether extracts were prepared for volatile fatty acid (VFA) analysis. Some minor adjustments were made in the termperatures on the Hewlett-Packard 5750 Gas-Liquid Chromatograph used for VFA analysis when the glass column used was changed from 1/4 inch diameter to 1/8 inch diameter. Injection Port = 220°C Column Oven = 170°C Flame Detector = 250°C Only 4 minutes was needed to record the sample instead of the previous 7 minutes.

[1] = 25 μg/ml, total produced on Day 10

Substance: 2,2'-(4,5-diphenyl-2H-imidazol-2-ylidene)bispyridine with CuCl2(1/1) [Formula IV Compound]
- CH4 (25 µg/ml, day 8): 6 µ Moles
- H2 (25 µg/ml, day 8): 17 µ Moles
- HAc (acetate) (25 µg/ml, day 8): 20.38
- HBu (butyrate) (25 µg/ml, day 8): 8.39
- HFo (formate) (25 µg/ml, day 8): 2.20
- HPr (propionate) (25 µg/ml, day 8): 14.71
- HiBu (isobutyrate) (25 µg/ml, day 8): 2.73
- HiVal (isovalerate) (25 µg/ml, day 8): 0
- Protein (25 µg/ml, day 8): 0 mg/mL
- Total (25 µg/ml, day 8): 48.40
- AA (25 µg/ml, day 9): 0.20 µ Moles/ml
- CH4 (25 µg/ml, day 9): 28 µ Moles
- H2 (25 µg/ml, day 9): 22 µ Moles
- HAc (acetate) (25 µg/ml, day 9): 20.91
- HBu (butyrate) (25 µg/ml, day 9): 5.82
- HFo (formate) (25 µg/ml, day 9): 1.78
- HPr (propionate) (25 µg/ml, day 9): 14.96
- HiBu (isobutyrate) (25 µg/ml, day 9): 1.21
- HiVal (isovalerate) (25 µg/ml, day 9): 0
- Protein (25 µg/ml, day 9): 0.03 mg/mL
- Total (25 µg/ml, day 9): 44.66
- AA (25 µg/ml, day 10): 0.30 µ Moles/ml
- CH4 (25 µg/ml, day 10): 55 µ Moles
- H2 (25 µg/ml, day 10): 8 µ Moles
- HAc (acetate) (25 µg/ml, day 10): 21.76
- HBu (butyrate) (25 µg/ml, day 10): 2.06
- HFo (formate) (25 µg/ml, day 10): 1.00
- HPr (propionate) (25 µg/ml, day 10): 13.79
- HiBu (isobutyrate) (25 µg/ml, day 10): 0.01
- HiVal (isovalerate) (25 µg/ml, day 10): 0
- Protein (25 µg/ml, day 10): 0 mg/mL
- Total (25 µg/ml, day 10): 38.62
- Caloric Value of CH3 (25 µg/ml, produced on Day 10): 11.59
- Caloric Value of H2 (25 µg/ml, produced on Day 10): 0.55
- Caloric Value of HAc (25 µg/ml, produced on Day 10): 94.73
- Caloric Value of HBu (25 µg/ml, produced on Day 10): 0
- Caloric Value of HFo (25 µg/ml, produced on Day 10): 0.28
- Caloric Value of HPr (25 µg/ml, produced on Day 10): 92.13
- Caloric Value of HiBu (25 µg/ml, produced on Day 10): 0
- Caloric Value of HiVal (25 µg/ml, produced on Day 10): 0
- Caloric Value, Total (VFA's) (25 µg/ml, produced on Day 10): 187.14
- Total Cal in VFA & Gas (25 µg/ml, produced on Day 10): 199.28 cal
- CH4 produced on Day 10 [1]: 55
- H2 produced on Day 10 [1]: 8
- HAc (acetate) produced on Day 10 [1]: 452.4
- HBu (butyrate) produced on Day 10 [1]: 0
- HFo (formate) produced on Day 10 [1]: 4.40
- HPr (propionate) produced on Day 10 [1]: 252.4
- HiBu (isobutyrate) produced on Day 10 [1]: 0
- HiVal (isovalerate) produced on Day 10 [1]: 0
- Total VFA's produced on Day 10 [1]: 709.2
- Gross Cal Remaining in Feed (75 µg/ml, Day 10, initial feed gross energy 800 kcal): 350.70 cal
- methane (75 µg/ml, by day 10): inhibited completely
- AA (75 µg/ml, day 2): 0.18 µ Moles/ml
- CH4 (75 µg/ml, day 2): 155 µ Moles
- H2 (75 µg/ml, day 2): 0 µ Moles
- HAc (acetate) (75 µg/ml, day 2): 33.48
- HBu (butyrate) (75 µg/ml, day 2): 8.18
- HFo (formate) (75 µg/ml, day 2): 0.95
- HPr (propionate) (75 µg/ml, day 2): 11.10
- HiBu (isobutyrate) (75 µg/ml, day 2): 0.95
- HiVal (isovalerate) (75 µg/ml, day 2): 0.69
- Protein (75 µg/ml, day 2): 0 mg/mL
- Total (75 µg/ml, day 2): 55.34
- AA (75 µg/ml, day 3): 0.27 µ Moles/ml
- CH4 (75 µg/ml, day 3): 71 µ Moles
- H2 (75 µg/ml, day 3): 0 µ Moles
- HAc (acetate) (75 µg/ml, day 3): 28.66
- HBu (butyrate) (75 µg/ml, day 3): 15.10
- HFo (formate) (75 µg/ml, day 3): 0.80
- HPr (propionate) (75 µg/ml, day 3): 14.81
- HiBu (isobutyrate) (75 µg/ml, day 3): 3.81
- HiVal (isovalerate) (75 µg/ml, day 3): 0.44
- Protein (75 µg/ml, day 3): 0.04 mg/mL
- Total (75 µg/ml, day 3): 63.61
- CH4 (75 µg/ml, day 4): 74 µ Moles
- H2 (75 µg/ml, day 4): 0 µ Moles
- HAc (acetate) (75 µg/ml, day 4): 27.47
- HBu (butyrate) (75 µg/ml, day 4): 5.26
- HFo (formate) (75 µg/ml, day 4): 1.29
- HPr (propionate) (75 µg/ml, day 4): 18.71
- HiBu (isobutyrate) (75 µg/ml, day 4): 0.95
- HiVal (isovalerate) (75 µg/ml, day 4): 0.25
- Total (75 µg/ml, day 4): 53.92
- CH4 (75 µg/ml, day 5): 74 µ Moles
- H2 (75 µg/ml, day 5): 0 µ Moles
- HAc (acetate) (75 µg/ml, day 5): 23.84
- HBu (butyrate) (75 µg/ml, day 5): 4.59
- HFo (formate) (75 µg/ml, day 5): 0.61
